Assay results taken from patent US20040006236A1, “Diaminopropionic acid derivatives” (priority 1999, published 2004).

System: Mac-1 and LFA-1-mediated neutrophil binding to immobilized ICAM-1
Test: Neutrophil (Mac-1 and LFA-1)/ICAM-1 cell-based screening assay
Conditions: human neutrophils
Protocol: Both Mac-1 and LFA-1 are expressed on the cell surface of neutrophils. The ability of antagonists to inhibit Mac-1 and LFA-1-mediated neutrophil binding to immobilized ICAM-1 was quantitated by a cell based assay. Typically, fusion protein consisting of the entire extracellular domain of human ICAM-1 and the Fc domain of human IgG (5dICAM-Ig) was coated onto 96 well microtiter plates (1 μg in 100 μL TBS) overnight at 4° C. The plates were then blocked with 150 μL of 10% PVP in TBS for 1 h at 37° C. Plates were washed 3 times (150 μL each) with TBS. Human neutrophils were purified from whole blood from healthy volunteers using LSM (ICN). Cells (8×10^6/mL) were fluorescently labeled with 6-carboxyfluorescein (100 μg/mL) for 40 min in IMDM/1 mM MgCl2/1.2 mM CaCl2 as described in Example 287. Cells (8×10^6/mL) were stimulated with f-Met-Leu-Phe (10 μM) for 5 min at room temperature just prior to being used in the assay, and diluted to 2×10^6 cells/mL with RPMI/0.05% BSA/0.2 mM MnCl2. Stock solutions (10 mM) of test compounds were diluted to 2.5 mM with DMSO. A series of 1:4 dilutions in DMSO were performed to achieve a concentration range of 38.2 nM-2.5 mM. Each sample was further diluted 50-fold with RPMI/0.05% BSA/0.2 mM MnCl2. Equal volumes of labeled cells were then added to assay tubes containing diluted compound. Final concentrations of compound tested in the assay ranged from 0.38 nM-25 μM with a cell concentration of 1×10^6 per mL. Cells were incubated for 10 min at 37° C. with gentle shaking, then dispensed (100 μL per well) onto ICAM-1 coated plates and incubated for 30 min at 37° C./5% CO2. Unbound cells were washed and plates were read on a Cytofluor™ 2300 (Millipore) as described in Example 384.

COc1cccc(C(=O)NC[C@H](NC(=O)c2ccc(C(=O)NCc3cccc(O)c3)cc2Cl)C(=O)O)c1 [Example 76, N-[2-chloro-4-[[[(3-hydroxyphenyl)methyl]amino]-carbonyl]benzoyl]-3-(3-methoxybenzoylamino)-L-alanine]
IC50: 63 nM

CC1(C(=O)NC[C@H](NC(=O)c2ccc(C(=O)NCc3cccc(O)c3)cc2Cl)C(=O)O)CCCCC1 [Example 105]
IC50: 94 nM

Nc1cccc(C(=O)NC[C@H](NC(=O)c2ccc(C(=O)NCc3cccc(O)c3)cc2Cl)C(=O)O)c1 [Example 118]
IC50: 37 nM

NS(=O)(=O)c1ccc(C(=O)NC[C@H](NC(=O)c2ccc(C(=O)NCc3cccc(O)c3)cc2Cl)C(=O)O)cc1 [Example 119]
IC50: 220 nM

O=C(NCc1cccc(O)c1)c1ccc(C(=O)N[C@@H](CNC(=O)c2cccc(Cl)c2)C(=O)O)c(Cl)c1 [Example 123]
IC50: 21 nM

O=C(NCc1cccc(O)c1)c1ccc(C(=O)N[C@@H](CNC(=O)c2cccc(F)c2)C(=O)O)c(Cl)c1 [Example 131]
IC50: 27 nM

O=C(NCc1cccc(O)c1)c1ccc(C(=O)N[C@@H](CNC(=O)c2cccc(O)c2)C(=O)O)c(Cl)c1 [Example 132]
IC50: 4.9 nM

Cc1cccc(C(=O)NC[C@H](NC(=O)c2ccc(C(=O)NCc3cccc(O)c3)cc2Cl)C(=O)O)c1 [Example 138]
IC50: 31 nM

O=C(NCc1cccc(O)c1)c1ccc(C(=O)N[C@@H](CNC(=O)c2ccc(Br)s2)C(=O)O)c(Cl)c1 [Example 155]
IC50: 65 nM

Cc1ccc(C(=O)NC[C@H](NC(=O)c2ccc(C(=O)NCc3cccc(O)c3)cc2Cl)C(=O)O)s1 [Example 160]
IC50: 23 nM

O=C(NCc1cccc(O)c1)c1ccc(C(=O)N[C@@H](CNC(=O)c2ccsc2)C(=O)O)c(Cl)c1 [Example 161]
IC50: 44 nM

C[C@@H](NC(=O)c1cc(Cl)c(C(=O)N[C@@H](CNC(=O)c2cccs2)C(=O)O)c(Cl)c1)c1cccc2ccccc12 [Example 346, N-[2,6-dichloro-4-[[[(1R)-1-(1-naphthalenyl)ethyl]amino]carbonyl]benzoyl]-3-[(thiophene-2-carbonyl)amino]-L-alanine]
IC50: 9.7 nM

C[C@@H](NC(=O)c1cc(Cl)c(C(=O)N[C@@H](CNC(=O)c2ccccc2)C(=O)O)c(Cl)c1)c1cccc2ccccc12 [Example 347]
IC50: 16.1 nM

O=C(NCc1cccc(O)c1)c1cc(Cl)c(C(=O)N[C@@H](CNC(=O)c2cccc(F)c2)C(=O)O)c(Cl)c1 [Example 349]
IC50: 4.7 nM

O=C(NCc1cccc(O)c1)c1cc(Cl)c(C(=O)N[C@@H](CNC(=O)c2cccc(O)c2)C(=O)O)c(Cl)c1 [Example 350]
IC50: 0.7 nM

COc1ccc(C(=O)NC[C@H](NC(=O)c2c(Cl)cc(C(=O)NCc3cccc(O)c3)cc2Cl)C(=O)O)cc1O [Example 351]
IC50: 2.7 nM

O=C(NCc1cccc(O)c1)c1cc(Cl)c(C(=O)N[C@@H](CNC(=O)c2sccc2Br)C(=O)O)c(Cl)c1 [Example 353]
IC50: 18.6 nM

O=C(NCc1cccc(O)c1)c1cc(Cl)c(C(=O)N[C@@H](CNC(=O)c2ccc(Br)s2)C(=O)O)c(Cl)c1 [Example 354]
IC50: 4.7 nM

Cc1ccc(C(=O)NC[C@H](NC(=O)c2c(Cl)cc(C(=O)NCc3cccc(O)c3)cc2Cl)C(=O)O)s1 [Example 358]
IC50: 4.3 nM
